The target of assay [1] is T1, GPR119 (Homo sapiens, UniProt Q8TDV5).
T1 sequence (Q8TDV5 1-335): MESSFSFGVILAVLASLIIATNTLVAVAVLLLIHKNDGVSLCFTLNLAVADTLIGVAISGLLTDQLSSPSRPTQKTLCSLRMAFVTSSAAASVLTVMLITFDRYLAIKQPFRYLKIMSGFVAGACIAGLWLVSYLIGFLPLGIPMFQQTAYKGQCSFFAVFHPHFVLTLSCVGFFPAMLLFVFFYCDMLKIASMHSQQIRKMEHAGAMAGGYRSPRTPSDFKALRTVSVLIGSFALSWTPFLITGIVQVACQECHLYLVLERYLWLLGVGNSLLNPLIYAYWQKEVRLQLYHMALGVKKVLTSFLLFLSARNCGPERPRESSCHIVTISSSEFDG
Put plainly: PathHunter β-arrestin assay (enzyme fragment complementation, β-galactosidase reporter) monitoring activation of GPR119. Also on record: β-galactosidase enzyme fragment for EFC (by own knowledge the ProLink tag, fused to the receptor's C-terminus in PathHunter lines). The note with it: for EC50: Table B-3; for Emax: Table B-3, read-out: % cAMP Max. It counts as cell-based. How it is done:
Certain test compounds were evaluated using the PathHunterR β-arrestin assay, which monitors the activation of GPR119 in a homogenous, non-imaging assay format using the enzyme fragment complementation (EFC) technology (DiscoverX Corporation, Fremont, Calif. U.S.A.; www.discoverx.com) with β-galactosidase as the functional reporter.

The target of assay [2] is T1, GPR119. Put plainly: LANCE Ultra cAMP assay: stimulation of GPR119-mediated cAMP production in CHO cells stably expressing human GPR119 receptor. It counts as cell-based. The note with it: for Emax: CHO. As to the method: The potency of GPR119 receptor agonists was assessed by measuring the stimulation of GPR119-mediated cAMP production with LANCE Ultra cAMP assay (Perkin Elmer, TRF0264) in CHO cells stably expressing human GPR119 receptor (Chantest, cat. #A633). CHO-GPR119 cells were cultured in DMEM/F12 medium supplemented with 10% FBS and 1% NEAA at 37° C., 5% CO2, aliquoted and frozen in liquid nitrogen.
For assay, cells were thawed in a water bath at 37° C., washed in Hank's Balanced Salt Solution (HBSS) and resuspended in Stimulation Buffer 1 (SB1) for 30 min: 5 mM HEPES, pH 7.2-7.4, 0.1% BSA in HBSS. […] The ULight-anti-cAMP antibody (Perkin Elmer, TRF0264) was added to the cell suspension making Mix [Cell suspension/4× ULight-anti-cAMP antibodies]. […] The assay plate was centrifuged 200 g, 5 sec.
Serial dilution (100×) of tested compounds were prepared in DMSO in the range of from 30 nM to 1 mM with half-log step in 384-well plates (Greiner, 781280) using Biomek 2000. 10 test concentrations in two repeats were prepared for each CRC. […] The assay plate was incubated 30 minutes at room temperature on a shaker, 250 rpm to allow GPR119 receptor stimulation. The cAMP level was determined according to the standard kit supplier protocol (PerkinElmer, cat. #TRF0264).
(§1) The stock solution of the Eu-cAMP tracer (Perkin Elmer, TRF0264) was diluted 1:100 in cAMP Detection Buffer (Perkin Elmer, TRF0264), making 2× working concentration and added to the assay plate, 10 μL per well. Assay plate was centrifuged 180 g, 1 sec. Then the assay plate was incubated for 60′ at room temperature on shaker, 250 rpm to allow cAMP detection. The TR-FRET signal was measured at Ex-340 nm/Em-615 and Ex-340 nm/Em-665 nm on the reader Tecan M1000. 0% of cAMP stimulation corresponds to the cells with DMSO only, 100% of cAMP stimulation corresponds to the cells with 10 uM Forskolin. The EC50 value defined as the concentration of the drug that gives half-maximal response, were calculated using GraphPad Prizm 5.0 software with forskolin was used as references at each test. Entries 1-17 in Table A-2 show the biological activity of certain representative compounds using the protocol as described above.
For assay, cells were thawed in a water bath at 37° C., washed in Hank's Balanced Salt Solution (HBSS) and resuspended in Stimulation Buffer 1 (SB1) for 30 min: 5 mM HEPES, pH 7.2-7.4, 0.1% BSA in HBSS. […] The ULight-anti-cAMP antibody (Perkin Elmer, TRF0264) was added to the cell suspension, making Mix [Cell suspension/4× ULight-anti-cAMP antibodies]. […] The assay plate was centrifuged 200 g, 5 sec.
as §1, with “1-14” for “1-17”, “B-2” for “A-2”

The mark [3] stands for this setting: Table B-2 entries 15-39, modified protocol, 500 cells/well, read-out: % cAMP Max.
The mark [4] stands for this setting: Table B-2 entries 15-39, modified protocol, 500 cells/well.
Setting [5] is: Table B-2 entries 1-14, protocol as described (800 000 cells/mL, 5 uL/well), CHO-GPR119 cells.
Where [6] appears, read: reference ligands in modified protocol, 500 cells/well.
[7] abbreviates: Table A-2 entries 1-17, protocol as described, 100% = 10 uM Forskolin, read-out: % cAMP Max. relative to forscolin.
Where [8] appears, read: Table A-2 entries 1-17, protocol as described (800 000 cells/mL, 5 uL/well), CHO-GPR119 cells.

Bounds are passed on as bounds.

The results in this text go back to patent US10906894B2, “Compounds containing benzo[d][1,3]oxathiole, benzo[d][1,3]oxathiole 3-oxide or benzo[d][1,3]oxathiole 3,3-dioxide and methods/uses thereof as agonists of g protein-coupled receptor 119” (PRAMANA PHARMACEUTICALS INC., priority 2016, dated 2021).

For orientation: EC50 means the midpoint of the concentration-response curve. A high value points to weaker potency. Regarding `CC(C)c1cnc(N2CCC(COc3ccc(-c4ccc5c(c4)OC[S@@+]5[O-])cc3F)CC2)nc1` [Example B-46, (S)-6-(3-fluoro-4-((1-(5-isopropylpyrimidin-2-yl)piperidin-4-yl)methoxy)phenyl)-2H-benzo[d][1,3]oxathiole 3-oxide], the EC50 came out at 7.9 nM at GPR119 [1] and 10.1 nM at GPR119 [2] (setting [4]). Also, the Emax on GPR119 [1] was determined as 164%; on GPR119 [2] (setting [3]) it was 82%.
Regarding `[O-][S@+]1COc2cc(-c3ccc(OCC4CCN(c5ncc(Cl)cn5)CC4)c(F)c3)ccc21` [Example B-59, (S)-6-(4-((1-(5-Chloropyrimidin-2-yl)piperidin-4-yl)methoxy)-3-fluorophenyl)-2H-benzo[d][1,3]oxathiole 3-oxide], the EC50 was 6.7 nM at GPR119 [1] and 1.7 nM at GPR119 [2] (setting [4]). Also, the Emax turned out to be 175% on GPR119 [1] and 70% on GPR119 [2] (setting [3]).
In the same order, the values of `CCc1cnc(N2CC[C@H](COc3ccc(-c4ccc5c(c4)OC[S@@+]5[O-])cc3)C2)nc1` [Example B-91, (S)-6-(4-(((S)-1-(5-Ethylpyrimidin-2-yl)pyrrolidine-3-yl)methoxy)phenyl)-2H-benzo[d][1,3]oxathiole 3-oxide] are 222 nM, 10.3 nM, 155% and 93%.
For `CCc1ccnc(N2CC[C@H](COc3ccc(-c4ccc5c(c4)OC[S@+]5[O-])cc3F)C2)n1` [Example B-85, (R)-6-(4-(((S)-1-(4-Ethylpyrimidin-2-yl)pyrrolidine-3-yl)methoxy)-3-fluorophenyl)-2H-benzo[d][1,3]oxathiole 3-oxide], the EC50 at GPR119 [1] is 657 nM; on GPR119 [2] (setting [4]), 13 nM. Also, the Emax at GPR119 [1] was determined as 73%; on GPR119 [2] (setting [3]), 64%.
Take `[O-][S+]1COc2cc(-c3ccc(OCC4CCN(c5ccc(C(F)(F)F)cn5)CC4)c(F)c3)ccc21` (stereo not shown) [Example B-29, 6-(3-Fluoro-4-((1-(5-(trifluoromethyl)pyridin-2-yl)piperidin-4-yl)methoxy)phenyl)-2H-benzo[d][1,3]oxathiole 3-oxide]: the midpoint of the response at GPR119 [2] (setting [5]), the EC50, lay at 52 nM.
Take `CCCCCCCC/C=C\CCCCCCCC(=O)NCCO` [oleoyl ethanolamide, reference compound]: on GPR119 [2] (setting [6]), the EC50 stood at 592 nM and the “maximum cAMP stimulation” value is 100%.
With `CCc1cnc(N2CCC(COc3ccc(-c4ccc5c(c4)OC[S@@+]5[O-])cc3F)CC2)nc1` [Example B-45, (S)-6-(4-((1-(5-Ethylpyrimidin-2-yl)piperidin-4-yl)methoxy)-3-fluorophenyl)-2H-benzo[d][1,3]oxathiole 3-oxide], at GPR119 [2] (setting [3]), the Emax was determined as 68%. Also, the EC50 at GPR119 [2] (setting [4]) was determined as 2.3 nM.
With `C=C[C@@]1(C)CC(=O)[C@]2(O)[C@@]3(C)[C@@H](O)CCC(C)(C)[C@@H]3[C@H](O)[C@H](OC(C)=O)[C@@]2(C)O1` [Forscolin, Forskolin, reference compound], at GPR119 [2] (setting [6]), the EC50 is 28.5 nM and the “maximum cAMP stimulation” value is given as 124%.
Take `[O-][S@+]1COc2cc(-c3cnc(OCC4CCN(c5ncc(Cl)cn5)CC4)nc3)ccc21` [Example B-62, (S)-6-(2-((1-(5-Chloropyrimidin-2-yl)piperidin-4-yl)methoxy)pyrimidin-5-yl)-2H-benzo[d][1,3]oxathiole 3-oxide]: the Emax at GPR119 [2] (setting [3]) turned out to be 66%. At GPR119 [2] (setting [4]), this compound gave a concentration giving a half-maximal response (EC50) of 43.5 nM.
For `CCc1cnc(N2CC[C@@H](COc3ccc(-c4ccc5c(c4)OC[S@@+]5[O-])cc3F)C2)nc1` [Example B-77], in that order: 81% and 32.5 nM.
As to `CC(C)(C)N1CCC(COc2ccc(-c3ccc4c(c3)OCS4(=O)=O)cc2F)CC1` [A-13], the Emax on GPR119 [2] (setting [7]) came to 75%. The compound further showed a half-maximal effective concentration (EC50) at GPR119 [2] (setting [8]) of 833 nM.
Consider `[O-][S+]1COc2cc(-c3ccc(OCC4CCN(c5ncc(Cl)cn5)CC4)c(F)c3)ccc21` (stereo not shown) [Example B-16, 6-(4-((1-(5-Chloropyrimidin-2-yl)piperidin-4-yl)methoxy)-3-fluorophenyl)-2H-benzo[d][1,3]oxathiole 3-oxide], for which the EC50 on GPR119 [2] (setting [5]) amounted to 2.3 nM.
On the same count and under the same terms, then `Fc1cc(-c2ccc3c(c2)OCS3)ccc1OCC1CCN(c2ncc(Cl)cn2)CC1` [Example B-12], with 280 nM.
As to `CC(C)c1noc(N2CCC(COc3ccc(-c4ccc5c(c4)OCS5(=O)=O)cc3F)CC2)n1` [Example A-59, 6-(3-Fluoro-4-((1-(3-isopropyl-1,2,4-oxadiazol-5-yl)piperidin-4-yl)methoxy)phenyl)-2H-benzo[d][1,3]oxathiole 3,3-dioxide], the Emax on GPR119 [2] (setting [7]) amounted to 77%. Also, a half-maximal effect on GPR119 [2] (setting [8]) (EC50) was put at 5.4 nM.
On to `O=S1(=O)COc2cc(-c3cnc(OCC4CCN(c5ncc(Cl)cn5)CC4)nc3)ccc21` [A-29, 6-(2-((1-(5-Chloropyrimidin-2-yl)piperidin-4-yl)methoxy)pyrimidin-5-yl)-2H-benzo[d][1,3]oxathiole 3,3-dioxide], for which the Emax on GPR119 [2] (setting [7]) worked out at 80%. On GPR119 [2] (setting [8]), a half-maximal effect (EC50) was put at 33.1 nM.
For `CCc1ccnc(N2CC[C@H](COc3ccc(-c4ccc5c(c4)OCS5(=O)=O)cc3F)C2)n1` [Example A-92, (S)-6-(4-((1-(4-Ethylpyrimidin-2-yl)pyrrolidin-3-yl)methoxy)-3-fluorophenyl)-2H-benzo[d][1,3]oxathiole 3,3-dioxide], at GPR119 [2] (Table A-2 entries 18-25, modified protocol, 500 cells/well, read-out: % cAMP Max. relative to forscolin), the Emax was found to be 90%. This compound gave a concentration giving a half-maximal response (EC50) at GPR119 [2] (Table A-2 entries 18-25, modified protocol, 500 cells/well) of 58 nM.
Consider `CC(C)CC(=O)N1CCC(COc2ccc(-c3ccc4c(c3)OCS4)cc2F)CC1` [Example B-40, 1-(4-((4-(Benzo[d][1,3]oxathiol-6-yl)-2-fluorophenoxy)methyl)piperidin-1-yl)-3-methylbutan-1-one], for which the Emax on GPR119 [2] (setting [3]) was 50%. The compound also registered an EC50 on GPR119 [2] (setting [4]) of 2000 nM.
`CC(C)(C)OC(=O)N1CCC(COc2ccc(-c3ccc4c(c3)OC[S+]4[O-])cc2F)CC1` (stereo not shown) [Example B-17, tert-Butyl 4-((2-fluoro-4-(3-oxido-1,3-benzoxathiol-6-yl)phenoxy)methyl) piperidine-1-carboxylate] had an EC50 at GPR119 [2] (setting [5]) of more than 100 nM.
`CCc1cnc(N2CCC(COc3ccc(-c4ccc5c(c4)OCS5(=O)=O)cc3F)CC2)nc1` [A-24]: the Emax on GPR119 [2] (setting [7]) was 77%. For the same compound, on GPR119 [2] (setting [8]), the response was half-maximal at 2.5 nM (EC50).
`CCc1cnc(N2CCC(COc3ccc(-c4ccc5c(c4)OC[S+]5[O-])cc3F)CC2)nc1` (stereo not shown) [Example B-19]: the EC50 on GPR119 [2] (setting [5]) was 4.8 nM.
